{"source": "patent US10537558B2", "about": "(Bantam Pharmaceutical, LLC, priority 2015, dated 2020)", "test_system": "BJAB cells", "assay": "BJAB cell proliferation (Cell Titer Glo)", "assay_type": "cell-based", "conditions": "Homo sapiens, read-out: EC50", "method_in_brief": "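EC50 values come from non-linear regression of luminescence (Cell Titer Glo), expressed relative to untreated wells. BJAB cells were incubated roughly 72 h at 37 °C with serial compound dilutions carrying 0.1% final DMSO.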"}
{"smiles": "Cc1nn(-c2nc(-c3ccc(Cl)c(Cl)c3)c(SC(C)C)s2)c(C(N)=O)c1-c1cc(C(F)(F)F)cc(C(F)(F)F)c1", "note": "[Compound 73, 4-(3,5-bis(trifluoromethyl)phenyl)-1-(4-(3,4-dichlorophenyl)-5-(isopropylthio)thiazol-2-yl)-3-methyl-1H-pyrazole-5-carboxamide]", "values": [{"measurement": "EC50", "result": "> 40", "unit": "µM"}]}
{"smiles": "Cc1cc(C)nc(-c2c(C)nn(-c3nc(-c4ccc(Cl)c(Cl)c4)c(SC(C)C)s3)c2C(=O)O)n1", "note": "[Compound 74, 1-(4-(3,4-dichlorophenyl)-5-(isopropylthio)thiazol-2-yl)-4-(4,6-dimethylpyrimidin-2-yl)-3-methyl-1H-pyrazole-5-carboxylic acid]", "values": [{"measurement": "EC50", "result": "25 to 50", "unit": "µM"}]}
{"smiles": "Cc1nn(-c2nc(-c3ccc(Cl)c(Cl)c3)c(SC(C)C)s2)c(C(=O)NCc2ccccn2)c1-c1cc(C(F)(F)F)cc(C(F)(F)F)c1", "note": "[Compound 75, 4-(3,5-bis(trifluoromethyl)phenyl)-1-(4-(3,4-dichlorophenyl)-5-(isopropylthio)thiazol-2-yl)-3-methyl-N-(pyridin-2-ylmethyl)-1H-pyrazole-5-carboxamide]", "values": [{"measurement": "EC50", "result": "> 40", "unit": "µM"}]}
{"smiles": "Cc1nn(-c2nc(-c3ccc(Cl)c(Cl)c3)c(SC(C)C)s2)c(C(=O)N(C)CCO)c1-c1cc(C(F)(F)F)cc(C(F)(F)F)c1", "note": "[Compound 76, 4-(3,5-bis(trifluoromethyl)phenyl)-1-(4-(3,4-dichlorophenyl)-5-(isopropylthio)thiazol-2-yl)-N-(2-hydroxyethyl)-N,3-dimethyl-1H-pyrazole-5-carboxamide]", "values": [{"measurement": "EC50", "result": "> 40", "unit": "µM"}]}
{"smiles": "Cc1nn(-c2nc(-c3ccc(Cl)c(Cl)c3)c(SC(C)C)s2)c(C(=O)N(C)c2nnc(C(F)(F)F)s2)c1-c1cc(C(F)(F)F)cc(C(F)(F)F)c1", "note": "[Compound 77, 4-(3,5-bis(trifluoromethyl)phenyl)-1-(4-(3,4-dichlorophenyl)-5-(isopropylthio)thiazol-2-yl)-N,3-dimethyl-N-(5-(trifluoromethyl)-1,3,4-thiadiazol-2-yl)-1H-pyrazole-5-carboxamide]", "values": [{"measurement": "EC50", "result": "> 40", "unit": "µM"}]}
{"smiles": "CCN(CC)C1CCN(C(=O)c2c(-c3cc(C(F)(F)F)cc(C(F)(F)F)c3)c(C)nn2-c2nc(-c3ccc(Cl)c(Cl)c3)c(SC(C)C)s2)C1", "note": "(stereo not shown) [Compound 78, (4-(3,5-bis(trifluoromethyl)phenyl)-1-(4-(3,4-dichlorophenyl)-5-(isopropylthio)thiazol-2-yl)-3-methyl-1H-pyrazol-5-yl)(3-(diethylamino)pyrrolidin-1-yl)methanone]", "values": [{"measurement": "EC50", "result": "> 40", "unit": "µM"}]}
{"smiles": "Cc1nn(-c2nc(-c3ccc(Cl)c(Cl)c3)c(SC(C)C)s2)c(C(=O)O)c1-c1cnccn1", "note": "[Compound 79, 1-(4-(3,4-dichlorophenyl)-5-(isopropylthio)thiazol-2-yl)-3-methyl-4-(pyrazin-2-yl)-1H-pyrazole-5-carboxylic Acid]", "values": [{"measurement": "EC50", "result": "10 to 25", "unit": "µM"}]}
{"smiles": "Cc1cc(C#N)cc(-c2c(C)nn(-c3nc(-c4ccc(Cl)c(Cl)c4)c(SC(C)C)s3)c2C(=O)O)c1", "note": "[Compound 80, 4-(3-cyano-5-methylphenyl)-1-(4-(3,4-dichlorophenyl)-5-(isopropylthio)thiazol-2-yl)-3-methyl-1H-pyrazole-5-carboxylic Acid]", "values": [{"measurement": "EC50", "result": "1 to 5", "unit": "µM"}]}
{"smiles": "Cc1nn(-c2nc(-c3ccc(Cl)c(Cl)c3)c(SC(C)C)s2)c(C(=O)Nc2nnn[nH]2)c1-c1cc(C(F)(F)F)cc(C(F)(F)F)c1", "note": "[Compound 81, 4-(3,5-bis(trifluoromethyl)phenyl)-1-(4-(3,4-dichlorophenyl)-5-(isopropylthio)thiazol-2-yl)-3-methyl-N-(1H-tetrazol-5-yl)-1H-pyrazole-5-carboxamide]", "values": [{"measurement": "EC50", "result": "> 40", "unit": "µM"}]}
{"smiles": "Cc1nnc(-c2c(C)nn(-c3nc(-c4ccc(Cl)c(Cl)c4)c(SC(C)C)s3)c2C(=O)O)s1", "note": "[Compound 82, 1-(4-(3,4-dichlorophenyl)-5-(isopropylthio)thiazol-2-yl)-3-methyl-4-(5-methyl-1,3,4-thiadiazol-2-yl)-1H-pyrazole-5-carboxylic acid]", "values": [{"measurement": "EC50", "result": "> 40", "unit": "µM"}]}
